The values below come from US9675697B2 (THE REGENTS OF THE UNIVERSITY OF MICHIGAN, priority 2013, dated 2017).

Read-outs that look alike come from different tables or passages of the source.

The target in one assay is BRD3 BD1 (Homo sapiens (Human), UniProt Q15059). The experiment in a line: FP competitive binding assay using Cpd. No. 350 as the probe.
The target of another assay is BRD3 BD2 (Homo sapiens (Human), UniProt Q15059). Described as above.
In assay [1] the target is T1, BRD4 BD2 (Homo sapiens (Human), UniProt O60885). The experiment in a line: FP competitive binding assay (BRD-1F probe). Conditions: for IC50: BRD-1F probe 5 nM, protein 200 nM; for Ki: BRD-1F probe, calculated from IC50. As for the experimental part: (§1) The FAM labeled fluorescent probe (BRD-1F) was synthesized based on a known small-molecule BET bromodomain inhibitor. […] Final BRD-1F concentration was 5 nM. Plates were incubated at room temperature for 1-2 hours with gentle shaking to assure equilibrium.
(§2) Final probe concentration is 5 nM in all assays. […] FP values were measured as described above.

Assay [2] concerns the target T2, BRD2 BD2 (Homo sapiens (Human), UniProt P25440). The experiment in a line: FP competitive binding assay (BRD-1F probe). Conditions: for IC50: BRD-1F probe 5 nM, protein 200 nM; for Ki: BRD-1F probe, calculated from IC50. On the procedure: as §1, §2
For assay [3], the target named is T2, BRD2 BD2. Briefly: FP competitive binding assay using Cpd. No. 350 as the probe.
Method: (§5) Fluorescence Polarization (FP) competitive binding studies (see above) were carried out using the FAM labeled fluorescent probe Cpd. No. 350 to determine binding affinities of representative compounds to both BD1 and BD2 of BRD2, BRD3, and BRD4 proteins. Equilibrium dissociation constants (Id) values of Cpd. No. 350 to these six proteins were determined from protein saturation experiments by monitoring the total fluorescence polarization of mixtures composed with the fluorescent probe at a fixed concentration and proteins with increasing concentrations up to full saturation. Serial dilutions of testing protein were mixed with Cpd. No. 350 to a final volume of 200 μl in the assay buffer. […] Plates were incubated at room temperature for 30 minutes with gentle shaking to assure equilibrium. […] Kd values of Cpd.
(§6) The IC50 and Ki values of compounds were determined in a competitive binding experiment as described above. […] FP values were measured as described above. IC50 values were determined by nonlinear regression fitting of the competition curves.
The target in the next assay is BRD2 BD1 (Homo sapiens (Human), UniProt P25440). Described as above.
Chain of BRD2 BD1 (P25440 74-180): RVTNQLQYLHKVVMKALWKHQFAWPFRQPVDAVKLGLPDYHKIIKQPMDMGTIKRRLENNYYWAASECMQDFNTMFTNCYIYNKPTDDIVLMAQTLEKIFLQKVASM
In assay [4] the target is T1, BRD4 BD2. The assay is described as above.
Method: as §5, §6
Another assay addresses BRD4 BD1 (Homo sapiens (Human), UniProt O60885). Described as above.
The subject of a further assay is prostate VCaP cell line. Briefly: Cell growth inhibition, Cell TiterGLO, 4 days. It counts as cell-based. Particulars: treated 4 days, read-out: VCaP cells (IC50 (nM)).
A further assay concerns K562. The experiment in a line: Cell growth inhibition in leukemia cell line. Particulars: Homo sapiens. It counts as cell-based.
In a further assay the test system is MV4;11. The experiment in a line: Cell growth inhibition in leukemia cell line. It counts as cell-based. Particulars: Homo sapiens, MV4-11, cell growth inhibition.
The subject of a further assay is AML-2. The experiment in a line: Cell growth inhibition in leukemia cell line. The format is cell-based. As for the experimental part:
(§3) The effect of representative BET bromodomain inhibitors on cell viability was determined in a 4-day proliferation assay. Cells were maintained in the appropriate culture medium with 10% FBS at 37° C. and an atmosphere of 5% CO2. All the cell lines were used within three months of thawing fresh vials.
(§4) Cells were seeded in 96-well flat bottom (Corning COSTAR, Corning, N.Y., cat#3595) or white opaque cell culture plates (BD Falcon, cat#353296) at a density of 3,000-10,000 cells/well in 75 μl of culture medium. Compounds were serially diluted in the appropriate medium, and 75 μl of the diluted compounds were added to the appropriate wells of the cell plate. After the addition of compounds, the cells were incubated at 37° C. in an atmosphere of 5% CO2 for 4 days. Cell viability was determined using the CellTiter-Glo® Luminescent Cell Viability Assay Kit (Promega, Madison, Wis.) for MOLM-13 cells and WST (2-(2-methoxy-4-nitrophenyl)-3-(4-nitrophenyl)-5-(2,4-disulfophenyl)-2H-tetrazolium, monosodium salt) Cell Counting-8 Kit (Dojindo Molecular Technologies, Inc., Rockville, Md.) for MDA-MB-436 cells according to the manufacturers' instructions.

Assay [5] concerns leukemia MOLM-13 cell line. Briefly: 4-day cell viability assay, CellTiter-Glo. Conditions: 4 days, read-out: Cell Growth Inhibition (IC50 (nM)) MOLM-13 Cell Line (CellTiter-Glo assay). The format is cell-based. As for the experimental part:
as §3, §4
For the CellTiter-Glo assay, 100 μl of CellTiter-Glo® Reagent was added to each well, and then the plates were incubated at room temperature for 10-20 minutes. The luminescent signal was measured using a Tecan Infinite M1000 multimode microplate reader (Tecan, Morrisville, N.C.). The readings were normalized to the DMSO-treated cells and the IC50 was calculated by nonlinear regression (four parameters sigmoid fitted with variable slope, least squares fit, and no constraint) analysis using the GraphPad Prism 5 software.
(In general: In ATP-based viability assays light output follows the ATP content of the culture.)

For assay [6], the system named is breast cancer MDA-MB-436 cell line. Briefly: 4-day cell viability assay, WST. The format is cell-based. Conditions: 4 days, read-out: Cell Growth Inhibition (IC50 (nM)) MDA-436 Cell Line (WST assay). On the procedure:
as §3, §4
For the WST assay, WST-8 reagent was added to each well at a final concentration of 10% (v/v), and then the plates were incubated at 37° C. for 1-2 hours for color development. The absorbance was measured at 450 nm using a SPECTRAmax PLUS plate reader (Molecular Devices, Sunnyvale, Calif.). The readings were normalized to the DMSO-treated cells and the half maximal inhibitory concentration (IC50) was calculated by nonlinear regression (four parameters sigmoid fitted with variable slope, least squares fit, and no constraint) analysis using the GraphPad Prism 5 software (GraphPad Software, La Jolla, Calif.).

Where [7] appears, read: read-out: BRD3 BD1 Ki, FP, Cpd. No. 350 probe […].
Setting [8] is: read-out: BRD3 BD2 Ki, FP, Cpd. No. 350 probe […].
[9] abbreviates: read-out: BRD2 BD2 Ki, FP, Cpd. No. 350 probe […].
Where [10] appears, read: read-out: BRD2 BD1 Ki, FP, Cpd. No. 350 probe […].
Where [11] appears, read: read-out: BRD4 BD2 Ki, FP, Cpd. No. 350 probe […].
The mark [12] stands for this setting: read-out: BRD4 BD1 Ki, FP, Cpd. No. 350 probe […].

T2 sequence (P25440 344-453): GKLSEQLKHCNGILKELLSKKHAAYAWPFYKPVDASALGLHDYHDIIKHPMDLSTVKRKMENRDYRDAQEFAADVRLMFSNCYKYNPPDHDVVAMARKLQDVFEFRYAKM
Chain of BRD3 BD2 (Q15059 306-415): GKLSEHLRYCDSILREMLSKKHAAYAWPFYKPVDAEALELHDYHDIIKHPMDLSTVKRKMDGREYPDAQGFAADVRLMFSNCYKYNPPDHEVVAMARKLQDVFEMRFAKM
Chain of BRD3 BD1 (Q15059 34-140): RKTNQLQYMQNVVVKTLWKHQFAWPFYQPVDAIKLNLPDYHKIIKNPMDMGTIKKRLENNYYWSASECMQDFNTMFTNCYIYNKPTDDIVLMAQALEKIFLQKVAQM
Method for BRD2 BD1: as §5, §6
Method for BRD3 BD1: as §5, §6
Method for BRD3 BD2: as §5, §6
Method for BRD4 BD1: as §5, §6

Turning to `COc1cc2c(cc1-c1c(C)noc1C)[nH]c1ccncc12` [RX-7], the Ki on BRD3 BD1 (setting [7]) was 730 ± 146 nM; on BRD3 BD2 (setting [8]) it was 241 ± 6 nM; on BRD4 BD2 [1] it was 850 nM; at BRD2 BD2 [2], 366 ± 82 nM; at BRD2 BD2 [3] (setting [9]), 498 ± 11 nM; on BRD2 BD1 (setting [10]), 650 ± 125 nM. Further, the results for the Ki at BRD4 BD2 [4] (setting [11]) and on BRD4 BD1 (setting [12]) were 824 ± 25 nM and 1640 ± 71 nM, respectively. Moreover, the half-inhibitory concentration (IC50) at BRD4 BD2 [1] was found to be 2900 nM; at BRD2 BD2 [2], 1350 ± 212 nM.

With `COc1cc2c(cc1-c1c(C)noc1C)[nH]c1nc(C)nc(-c3ccnc4ccc(Cl)cc34)c12` [Cpd. No. 90], the IC50 with prostate VCaP cell line (Homo sapiens, VCaP, 96 h) worked out at 20 nM.

Take `COc1cc2c(cc1-c1c(C)noc1C)[nH]c1ccnc(-c3cn[nH]c3)c12`: the Ki at BRD3 BD1 (setting [7]) is 151 ± 20 nM; at BRD3 BD2 (setting [8]) it was 48.7 ± 3.3 nM; at BRD4 BD2 [1], 114 ± 87 nM; on BRD2 BD2 [2] it was 42.3 ± 32 nM; at BRD2 BD2 [3] (setting [9]), 89.7 ± 6.4 nM; on BRD2 BD1 (setting [10]) it was 138 ± 8 nM. Also, the inhibitory constant (Ki) was determined as 201 ± 5 nM at BRD4 BD2 [4] (setting [11]) and 247 ± 29 nM at BRD4 BD1 (setting [12]). In addition, the IC50 is 608 ± 244 nM on BRD4 BD2 [1]; 286 ± 125 nM on BRD2 BD2 [2]; above 2000 nM in the assay on K562; 1070 ± 195 nM in the assay with MV4;11; 217 ± 61 nM in the assay with AML-2; 1040 ± 158 nM in assay [5] (Homo sapiens, MOLM-13, 96 h).

With `COc1cc2c(cc1-c1c(C)noc1C)[nH]c1ccncc12` [Cpd. No. 1, 4-(8-methoxy-5H-pyrido[4,3-b]indol-7-yl)-3,5-dimethylisoxazole], the Ki was 14.7 ± 1 nM on BRD3 BD1; 14.3 ± 0.5 nM on BRD3 BD2; 34.5 ± 2.1 nM on BRD2 BD2 [3]; 31.6 ± 8.2 nM at BRD2 BD1; 70.1 ± 2 nM on BRD4 BD2 [4]; 47.8 ± 1 nM at BRD4 BD1. The concentration for half-maximal inhibition (IC50) was above 2000 nM in the assay on K562; 178 ± 114 nM in the assay on MV4;11; 148 ± 64 nM in the assay with AML-2; 550 ± 303 nM in assay [5] (Homo sapiens, MOLM-13, 96 h).

In the case of `COc1cc2c(cc1-c1c(C)noc1C)[nH]c1nc(C)nc(-c3ccnc4ccccc34)c12` [Cpd. No. 73], the IC50 in the assay on prostate VCaP cell line (Homo sapiens, VCaP, 96 h) worked out at 156 nM. Moreover, the Ki worked out at 10.2 nM on BRD3 BD1 (setting [7]); 2.6 nM on BRD3 BD2 (setting [8]); 8.7 nM at BRD2 BD2 [3] (setting [9]); 15.5 nM at BRD2 BD1 (setting [10]); 7.8 nM on BRD4 BD2 [4] (setting [11]); 35.3 nM at BRD4 BD1 (setting [12]).

Turning to `COc1cc2c(cc1-c1c(C)noc1C)[nH]c1nc(C)nc(-c3cc(NCCN(C)C)nc4ccccc34)c12` [Cpd. No. 101], in the assay on prostate VCaP cell line (Homo sapiens, VCaP, 96 h), the IC50 was found to be 25 nM.

As for `COc1cc2c(cc1-c1c(C)noc1C)[nH]c1ccnc(-c3c(C4CC4)n[nH]c3C)c12` [Cpd. No. 24, 4-(1-(3-cyclopropyl-5-methyl-1H-pyrazol-4-yl)-8-methoxy-5H-pyrido[4,3-b]indol-7-yl)-3,5-dimethylisoxazole], the Ki was 38.2 ± 1 nM on BRD3 BD1; 50.9 ± 5.8 nM at BRD3 BD2; 92.1 ± 3.3 nM at BRD2 BD2 [3]; 58.4 ± 1 nM on BRD2 BD1; 134 ± 42 nM on BRD4 BD2 [4]; 116 ± 5 nM at BRD4 BD1. Further, the IC50 in the assay on K562 is above 2000 nM; in the assay on MV4;11 it was 83 ± 41 nM; with AML-2 it was 173 ± 89 nM; in assay [5] (Homo sapiens, MOLM-13, 96 h), 280 ± 35 nM.

For the molecule `Cc1sc2c(c1C)C(c1ccc(Cl)cc1)=N[C@@H](CC(=O)OC(C)(C)C)c1nnc(C)n1-2` [JQ1, reference compound], the half-maximal inhibitory concentration (IC50) in the assay on prostate VCaP cell line was determined as 48 nM.

For the molecule `COc1cc2c(cc1-c1c(C)noc1C)[nH]c1ccnc(-c3ccccc3)c12`, at BRD4 BD2 [1], the IC50 amounted to 514 nM and the inhibition constant (Ki) is 83.4 nM. On BRD2 BD2 [2], the IC50 is 255 ± 114 nM and the Ki was 34.9 ± 21.2 nM.

Turning to `COc1cc2c(cc1-c1c(C)n[nH]c1C)[nH]c1ccnc(-c3c(C)n[nH]c3C)c12` [Cpd. No. 34, 1,7-bis(3,5-dimethyl-1H-pyrazol-4-yl)-8-methoxy-5H-pyrido[4,3-b]indole], at BRD4 BD2 [1], the half-maximal inhibitory concentration (IC50) turned out to be 3670 nM and the inhibition constant (Ki) was 775 nM. For the same molecule, on BRD2 BD2 [2], the concentration for half-maximal inhibition (IC50) worked out at 3200 nM and the inhibitory constant (Ki) was 1200 nM.

`COc1cc2c(cc1-c1c(C)noc1C)[nH]c1ccnc(-c3cccnc3)c12`: at BRD4 BD2 [1], the IC50 came out at 873 nM and the Ki was 232 nM. Moreover, at BRD2 BD2 [2], the IC50 is 349 nM and the Ki is 57.4 nM.

Take `COc1cc2c(cc1-c1c(C)noc1C)ncc1[nH]c(=O)n([C@H](C)c3ccccn3)c12` [I-BET151, reference compound]: the IC50 in the assay on prostate VCaP cell line (Homo sapiens, VCaP, 96 h) was found to be 862 nM.

In the case of `CCNC(=O)C[C@@H]1N=C(c2ccc(Cl)cc2)c2cc(OC)ccc2-n2c(C)nnc21` [I-BET762, reference compound], the IC50 in the assay on prostate VCaP cell line (Homo sapiens, VCaP, 96 h) was determined as 500 nM.

As for `COc1cc2c(cc1-c1c(C)noc1C)[nH]c1ccnc(-c3c(C)nn(-c4ccccc4)c3C)c12` [Cpd. No. 352, 4-(1-(3,5-dimethyl-1-phenyl-1H-pyrazol-4-yl)-8-methoxy-5H-pyrido[4,3-b]indol-7-yl)-3,5-dimethylisoxazole], the Ki was determined as 31.8 ± 1.5 nM at BRD3 BD1 (setting [7]); 35 ± 2 nM at BRD3 BD2 (setting [8]); 52.9 ± 2.7 nM on BRD2 BD2 [3] (setting [9]); 62.6 ± 9 nM at BRD2 BD1 (setting [10]); 98.1 ± 6.1 nM on BRD4 BD2 [4] (setting [11]); 103 ± 3 nM on BRD4 BD1 (setting [12]). For the same molecule, the half-maximal inhibitory concentration (IC50) turned out to be 724 nM in [6] and 751 nM in [5].

Take `COc1cc2c(cc1-c1c(C)noc1C)[nH]c1nc(C)nc(-c3cccc(C(C)(C)O)c3)c12` [Cpd. No. 183, 2-(3-(7-(3,5-Dimethylisoxazol-4-yl)-6-methoxy-2-methyl-9H-pyrimido[4,5-b]indol-4-yl)phenyl)propan-2-ol]: the Ki on BRD3 BD1 (setting [7]) worked out at 6.1 nM; on BRD3 BD2 (setting [8]), 4.7 nM; at BRD2 BD2 [3] (setting [9]), 8.8 nM; on BRD2 BD1 (setting [10]) it was 5.2 nM; at BRD4 BD2 [4] (setting [11]), 11.7 nM; on BRD4 BD1 (setting [12]), 7.9 nM. Also, the IC50 in assay [6] (Homo sapiens, MDA-MB-436, 96 h) came out at 93 nM; in assay [5] (Homo sapiens, MOLM-13, 96 h), 20 nM.

One may read the Ki as a measure of affinity in units of concentration, obtained from inhibition or displacement. As a reminder, the IC50 is the concentration at which inhibition is half-maximal.
